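Interpolation was linear, between the two tested concentrations surrounding the appropriate level; five concentrations were tested over 48 hours in 96-well plates. TGI denotes the concentration required for complete inhibition of growth.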
Assays:
Test in all cases: inhibition of tumour cell growth, NCI panel, 48 h
[1] = system: 786-0 renal
[2] = system: A498 renal
[3] = system: A549 NSCLC
[4] = system: ACHN renal
[5] = system: BT-549 breast
[6] = system: CAKI-1 renal
[7] = system: CCRF-CEM leukemia
[8] = system: COLO 205 colon
[9] = system: DU-145 prostate
[10] = system: EKVX NSCLC
[11] = system: HCC-2998 colon
[12] = system: HCT-116 colon
[13] = system: HCT-15 colon
[14] = system: HL-60(TB) leukemia
[15] = system: HOP-62 NSCLC
[16] = system: HOP-92 NSCLC
[17] = system: HS 578T breast
[18] = system: HT29 colon
[19] = system: K-562 leukemia
[20] = system: KM12 colon
[21] = system: LOX IMVI melanoma
[22] = system: MALME-3M melanoma
[23] = system: MCF7 breast
[24] = system: MDA-MB-231 breast
[25] = system: MDA-MB-435
[26] = system: MDA-N
[27] = system: MOLT-4 leukemia
[28] = system: NCI-H226 lung
[29] = system: NCI-H23 lung
[30] = system: NCI-H460 lung
[31] = system: NCI-H522 lung
[32] = system: NCI/ADR-RES ovarian
[33] = system: OVCAR-3 ovarian
[34] = system: OVCAR-4 ovarian
[35] = system: OVCAR-5 ovarian
[36] = system: OVCAR-8 ovarian
[37] = system: PC-3 prostate
[38] = system: RPMI-8226 leukemia
[39] = system: RXF 393 renal
[40] = system: SF-268 CNS
[41] = system: SF-295 CNS
[42] = system: SF-539 CNS
[43] = system: SK-MEL-2 melanoma
[44] = system: SK-MEL-28 melanoma
[45] = system: SK-MEL-5 melanoma
[46] = system: SN12C renal
[47] = system: SNB-75 CNS
[48] = system: SR leukemia
[49] = system: SW-620 colon
[50] = system: T-47D breast
[51] = system: TK-10 renal
[52] = system: U251 CNS
[53] = system: UACC-257 melanoma
[54] = system: UACC-62 melanoma
[55] = system: UO-31 renal
[56] = system: IGROV1 ovarian
[57] = system: M14 melanoma
[58] = system: SK-OV-3 ovarian
[59] = system: SNB-19 CNS

Measured: TGI

Cc1n[nH]c(=O)n1/N=C/c1ccc([N+](=O)[O-])cc1
not listed: [56] | [57] | [58] | [59]
> 100 µM: all other assays above

CN1CCN(CC(=O)N2CCCn3c2nc2ccccc2c3=O)CC1
not listed: [39] | [44]
> 100 µM: all other assays above
